Assay results taken from ChEMBL document CHEMBL1201862, “PubChem BioAssay data set” (2004).
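Briefly, cells in 96-well plates were exposed to five compound concentrations for 48 h, and endpoints were estimated by linear interpolation. GI50 = concentration required for 50% inhibition of growth.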 Active and inactive are the calls of the source. Cut-off read from the data, not from the text of the source: active = GI50 up to about 1.1 µM and inactive = higher.

Columns and labels:
Assay in all cases: DTP human tumour cell line panel, 48 h
[1] = tested on: SNB-75
[2] = tested on: HOP-92
[3] = tested on: M14
[4] = tested on: UACC-257
[5] = tested on: SK-MEL-28
[6] = tested on: LOX IMVI
[7] = tested on: SF-295
[8] = tested on: COLO 205
[9] = tested on: RPMI-8226
[10] = tested on: NCI-H226
[11] = tested on: UACC-62
[12] = tested on: HL-60
[13] = tested on: SNB-19
[14] = tested on: UO-31
[15] = tested on: SK-OV-3
[16] = tested on: CCRF-CEM
[17] = tested on: CAKI-1
[18] = tested on: HCT-15
[19] = tested on: SK-MEL-5
[20] = tested on: U-251

SMILES | GI50 [1] | GI50 [2] | GI50 [3] | GI50 [4] | GI50 [5] | GI50 [6] | GI50 [7] | GI50 [8] | GI50 [9] | GI50 [10] | GI50 [11] | GI50 [12] | GI50 [13] | GI50 [14] | GI50 [15] | GI50 [16] | GI50 [17] | GI50 [18] | GI50 [19] | GI50 [20]
COc1c2c(c(OC)c3c1c(=O)c1ccccc1n3C)OCO2 | 6.68 µM (inactive) | > 47.8 µM (inactive) | 9.51 µM (inactive) | > 100 µM (inactive) | 30.5 µM (inactive) | 5.48 µM (inactive) | 14.1 µM (inactive) | 7.66 µM (inactive) | 11.4 µM (inactive) | > 50.4 µM (inactive) | 9.06 µM (inactive) | 3.18 µM (inactive) | 26.5 µM (inactive) | 39.4 µM (inactive) | 25.5 µM (inactive) | 4.35 µM (inactive) | 37.4 µM (inactive) | 26.1 µM | 3.14 µM (inactive) | 19.1 µM (inactive)
CN(CCNC(=O)c1cc(-c2ccccc2)nc2ccccc12)CCNC(=O)c1cc(-c2ccccc2)nc2ccccc12 | 7.53 µM (inactive) | 2.61 µM (inactive) | 2.17 µM (inactive) | 3.05 µM (inactive) | 2.19 µM (inactive) | 3.89 µM (inactive) | 13.2 µM (inactive) | 2.22 µM (inactive) | 4.99 µM (inactive) | 14.6 µM (inactive) | 12.9 µM (inactive) | 4.7 µM (inactive) | > 60 µM (inactive) | 7.1 µM (inactive) | > 100 µM (inactive) | 4.69 µM (inactive) | > 100 µM (inactive) | > 80.5 µM | 2.31 µM (inactive) | 8.75 µM (inactive)
CN(C)CC1CCC(CN(C)C)C(=O)C1=O (stereo not given) | 14.7 µM (inactive) | 1.99 µM (inactive) | 5.52 µM (inactive) | 2.4 µM (inactive) | 8.87 µM (inactive) | 8.63 µM (inactive) | 16.6 µM (inactive) | 1.79 µM (inactive) | 2.52 µM (inactive) | 4.41 µM (inactive) | 16.1 µM (inactive) | 2.36 µM (inactive) | 17.7 µM (inactive) | 3.48 µM (inactive) | 24 µM (inactive) | 1.73 µM (inactive) | 1.99 µM (inactive) | 3 µM | 16.3 µM (inactive) | 12.7 µM (inactive)
NC(=O)CC(N)c1nnn[nH]1 (stereo not given) | > 100 µM (inactive) | > 100 µM (inactive) | > 100 µM (inactive) | > 100 µM (inactive) | > 100 µM (inactive) | > 100 µM (inactive) | > 100 µM (inactive) | > 100 µM (inactive) | > 100 µM (inactive) | > 100 µM (inactive) | > 100 µM (inactive) | > 100 µM (inactive) | > 100 µM (inactive) | > 100 µM (inactive) | > 100 µM (inactive) | > 100 µM (inactive) | > 100 µM (inactive) | > 100 µM | > 100 µM (inactive) | > 100 µM (inactive)
